target: T1, histamine H4 receptor (Homo sapiens, UniProt Q9H3N8); assay: H4 binding, method 1 ([3H]-histamine filtration binding on CHO cell membranes); conditions: 1.5 h
T1 construct: expressed in transfected cells; host or cells: CHO cells
Experimental: Cell pellets from CHO cells expressing the histamine H4 receptor were homogenised in ice-cold 50 mM Tris-HCl/0.5 mM CaCl2 buffer containing a protease inhibitor cocktail (Roche®, United Kingdom) using a ground glass homogeniser. Homogenates were centrifuged at 48000 g for 30 min at 4° C. The membrane pellet was resuspended in fresh buffer and the centrifugation step was repeated as described above. The membrane pellet was resuspended in 50 mM Tris-HCl in the same volume as the original cell pellet. Aliquots of membrane preparations were stored at −80° C. and were used for [^3H]-Histamine binding experiments.
Cell membranes (20-35 μg/well) were incubated for 90 minutes shaking at room temperature with 3 nM [2,5-^3H]Histamine dihydrochloride (30-60 Ci/mmol) in 50 mM Tris-HCl (pH 7.4), with or without competing H4 ligands. The reaction was terminated by rapid filtration through 0.5% polyethylenimine-soaked Unifilter GF/B plates (Packard) followed by three washes with 1 ml ice-cold 50 mM Tris-HCl. Filters were dried for 45 min at 45° C. and bound radiolabel was determined using scintillation counting techniques. Non-specific binding was defined with 10 μM JNJ7777120.

inhibition at 20 µM [%]	inhibition at 10 µM [%]	SMILES
43		CN[C@@H]1CCN(c2cc(NCc3ccc(F)cc3F)nc(N)n2)C1 [Example 325, N^4-(2,4-Difluorobenzyl)-6-[(3R)-3-(methylamino)pyrrolidin-1-yl]pyrimidine-2,4-diamine]
	30	CC(C)(C)CNc1cc(N2C[C@H]3C[C@@]3(N)C2)ncn1 [Example 297, (1S,5R)-3-{6-[(2,2-Dimethylpropyl)amino]pyrimidin-4-yl}-3-azabicyclo[3.1.0]hexan-1-amine]
	100	CCNc1cc(N2CC(C)(NC)C2)nc(N)n1 [Example 257, N^4-Ethyl-6-[3-methyl-3-(methylamino)azetidin-1-yl]pyrimidine-2,4-diamine]
48		CN[C@@H]1CCN(c2ncnc(NCC(C)(C)C)c2C)C1 [Example 326, N-(2,2-Dimethylpropyl)-5-methyl-6-[(3R)-3-(methylamino)pyrrolidin-1-yl]pyrimidin-4-amine]
	44	CC(C)(C)CCNc1cc(N[C@H]2CCN(Cc3ccccc3)C2)ncn1 [Example 289, N-[(3S)-1-Benzylpyrrolidin-3-yl]-N′-(3,3-dimethylbutyl)pyrimidine-4,6-diamine]
	18	CCN(CC)CCN(C)c1cc(NCC2CC2)ncn1 [Example 306, N′-(Cyclopropylmethyl)-N-[2-(diethylamino)ethyl]-N-methylpyrimidine-4,6-diamine]
	24	c1nc(NC[C@@H]2CCCO2)cc(N[C@H]2CCNC2)n1 [Example 290, N-[(3S)-Pyrrolidin-3-yl]-N′-[(2S)-tetrahydrofuran-2-ylmethyl]pyrimidine-4,6-diamine]

same assay, conditions: H4 binding, method 1; Ki calculated from IC50 (Cheng-Prussoff)

SMILES	Ki [nM]
CC(C)Nc1cc(N2CCCN(C)CC2)nc(N)n1 [Example 198, N^4-isoPropyl-6-(4-methyl-1,4-diazepan-1-yl)pyrimidine-2,4-diamine]	33.6
CNc1cc(N2CC[C@@H](NC)C2)nc(N)n1 [Example 221, N^4-Methyl-6-[(3R)-3-(methylamino)pyrrolidin-1-yl]pyrimidine-2,4-diamine]	90.3
Nc1nc(NC2CCC2)cc(N2C[C@@H]3CCCN[C@@H]3C2)n1 [Example 178, N^4-Cyclobutyl-6-[(4aS,7aS)-octahydro-6H-pyrrolo[3,4-b]pyridin-6-yl]pyrimidine-2,4-diamine]	16.1
CCNc1cc(N2CCN(C)CC2)ncn1 [Example 103, N-Ethyl-6-(4-methylpiperazin-1-yl)pyrimidin-4-amine]	87.9
Nc1nc(NCC2CC2)cc(N2CCC(N)CC2)n1 [Example 283, 6-(4-Aminopiperidin-1-yl)-N^4-(cyclopropylmethyl)pyrimidine-2,4-diamine]	1700
CNc1cc(N2CCC(N)CC2)nc(N)n1 [Example 284, 6-(4-Aminopiperidin-1-yl)-N^4-methylpyrimidine-2,4-diamine]	1720
CNc1cc(N2CCNCC2)nc(N)n1 [Example 208, N^4-Methyl-6-piperazin-1-ylpyrimidine-2,4-diamine]	45.1
CCNc1cc(N2CC[C@@H]3NCC[C@@H]3C2)nc(N)n1 (racemic) [Example 193, N^4-Ethyl-6-[(3aR*,7aS*)-octahydro-5H-pyrrolo[3,2-c]pyridin-5-yl]pyrimidine-2,4-diamine]	31
CC(C)Nc1cc(N2C[C@H]3CNC[C@H]3C2)nc(N)n1 [Example 238, 6-[(3aR*,6aS*)-Hexahydropyrrolo[3,4-c]pyrrol-2(1H )-yl]-N^4-isopropylpyrimidine-2,4-diamine]	222
CN1CCN(c2cc(N3CCOCC3)ncn2)CC1 [Example 293, 4-[6-(4-Methylpiperazin-1-yl)pyrimidin-4-yl]morpholine]	3040
CNC1CN(c2cc(N3CCOC[C@H]3C)nc(N)n2)C1 [Example 263, 4-[3-(Methylamino)azetidin-1-yl]-6-[(3R)-3-methylmorpholiN^4-yl]pyrimidin-2-amine]	626
CCCC(C)Nc1cc(N2CC(NC)C2)nc(N)n1 (stereo not shown) [Example 158, 6-[3-(Methylamino)azetidin-1-yl]-N^4-(1-methylbutyl)pyrimidine-2,4-diamine]	2.59
CC(C)CNc1cc(N2CCC(N)CC2)nc(N)n1 [Example 229, 6-(4-Aminopiperidin-1-yl)-N^4-isobutylpyrimidine-2,4-diamine]	127
CCC(C)CNc1cc(N2CC[C@@H](N)C2)nc(N)n1 (stereo partly drawn) [Example 195, 6-[(3R)-3-Aminopyrrolidin-1-yl]-N^4-(2-methylbutyl)pyrimidine-2,4-diamine]	32.6
CN[C@@H]1CCN(c2cc(NC(C)C)nc(N)n2)C1 [Example 286, N^4-lsopropyl-6-[(3R)-3-(methylamino)pyrrolidin-1-yl]pyrimidine-2,4-diamine]	1940

Next, values leading:

Ki [nM]	SMILES
13.7	CC[C@@H](C)Nc1cc(N2CC[C@@H](NC)C2)ncn1 [Example 146, 6-[(3R)-3-(Methylamino)pyrrolidin-1-yl]-N-[(1R)-1-methylpropyl]pyrimidin-4-amine]
502	CC(C)(C)CCNc1cc(N[C@H]2CCNC2)ncn1 [Example 6, N-(3,3-Dimethylbutyl)-N′-[(3S)-pyrrolidin-3-yl]pyrimidine-4,6-diamine]
2400	CN1CCCC(Nc2cc(NCCC(C)(C)C)ncn2)C1 (stereo not shown) [Example 288, N-(3,3-Dimethylbutyl)-N′-(1-methylpiperidin-3-yl)pyrimidine-4,6-diamine]
198	CN[C@@H]1CCN(c2cc(NCCC(F)(F)F)nc(N)n2)C1 [Example 235, 6-[(3R)-3-(Methylamino)pyrrolidin-1-yl]-N^4-(3,3,3-trifluoropropyl)pyrimidine-2,4-diamine]
901	CN[C@@H]1CCN(c2cc(NCc3cccc(F)c3F)nc(N)n2)C1 [Example 272, N^4-(2,3-Difluorobenzyl)-6-[(3R)-3-(methylamino)pyrrolidin-1-yl]pyrimidine-2,4-diamine]
11.5	CCC(C)Nc1cc(N2CC(NC)C2)ncn1 (stereo not shown) [Example 153, N-(sec-Butyl)-6-[3-(methylamino)azetidin-1-yl]pyrimidin-4-amine]
16.5	CNC1CN(c2cc(NC3CCC3)ncn2)C1 [Example 179, N-Cyclobutyl-6-[3-(methylamino)azetidin-1-yl]pyrimidin-4-amine]
623	CNc1cc(N2CC[C@@H](NC)C2)ncn1 [Example 262, N-Methyl-6-[(3R)-3-(methylamino)pyrrolidin-1-yl]pyrimidin-4-amine]
355	C[C@H]1CN(c2cc(NCc3ccccc3)nc(N)n2)CCN1 [Example 251, N^4-Benzyl-6-[(3S)-3-methylpiperazin-1-yl]pyrimidine-2,4-diamine]
72.4	CNCCNc1cc(NCC(C)(C)C)nc(N)n1 [Example 143, N^4-(2,2-Dimethylpropyl)-N^6-[2-(methylamino)ethyl]pyrimidine-2,4,6-triamine]
4.89	CN[C@@H]1CCN(c2cc(NC(C)(C)C)nc(N)n2)C1 [Example 148, N^4-(tert-Butyl)-6-[(3R)-3-(methylamino)pyrrolidin-1-yl]pyrimidine-2,4-diamine]

same assay, conditions: at 10 μM

Method 1, % at 10 μM [% at 10 μM]	SMILES
35	CN(C)C1[C@H]2CN(c3cc(NCCC(C)(C)C)ncn3)C[C@@H]12 (stereo partly drawn) [Example 300, (1R*,5S*,6s*)-3-{6-[(3,3-Dimethylbutyl)amino]pyrimidin-4-yl}-N,N-dimethyl-3-azabicyclo[3.1.0]hexan-6-amine]

Reference: US7943628B2, “Pyrimidine derivatives” (Pfizer Limited, priority 2005, dated 2011)
